Test results taken from US20050026785A1, “Novel phenyl-propargylether derivatives” (priority 2001, published 2005).

Columns and labels:
Format in all cases: in vivo
Phytophthora [1] = assay: D-2b Systemic action against Phytophthora on tomato plants; conditions: test D-2b systemic (soil watering), untreated plants showed pathogen attack of 80-100%, read-out: inhibition of fungal infestation
Description: (§1) D-2: Action against Phytophthora on tomato plants
After a cultivation period of 3 weeks, tomato plants are watered with a spray mixture (0.02% active ingredient based on the volume of the soil) prepared from a wettable powder formulation of the test compound. […] After 96 hours, the treated plants are infected with a sporangia suspension of the fungus. Fungus infestation is evaluated after incubation of the infected plants for 4 days at 90-100% relative humidity and +20° C.

Plasmopara viticola [2] = assay: D-1b Residual-curative action against Plasmopara viticola on vines; conditions: test D-1b residual-curative, vine seedlings, untreated plants showed pathogen attack of 80-100%, read-out: inhibition of fungal infestation
Description: (§2) D-1: Action against Plasmopara viticola on vines
b) Residual-Curative Action
Vine seedlings are infected at the 4- to 5-leaf stage with a sporangia suspension of the fungus. After incubation for 24 hours in a humidity chamber at 95-100% relative humidity and +20° C., the infected plants are dried and sprayed with a spray mixture (0.02% active ingredient) prepared from a wettable powder formulation of the test compound. After the spray coating has dried, the treated plants are placed in the humidity chamber again. Fungus infestation is evaluated 6 days after infection.

Phytophthora [3] = assay: D-3b Systemic action against Phytophthora on potato plants; conditions: test D-3b systemic (soil watering), potato plants (Bintje), untreated plants showed pathogen attack of 80-100%, read-out: inhibition of fungal infestation
Description: (§3) D-3: Action against Phytophthora on potato plants
2-3 week old potato plants (Bintje variety) are watered with a spray mixture (0.02% active ingredient based on the volume of the soil) prepared from a wettable powder formulation of the test compound. […] After 48 hours, the treated plants are infected with a sporangia suspension of the fungus. Fungus infestation is evaluated after incubation of the infected plants for 4 days at 90-100% relative humidity and +20° C. Fungal infestation is effectively controlled with compounds of Tables 1 to 31.

Phytophthora [4] = assay: D-3a Residual-protective action against Phytophthora on potato plants; conditions: test D-3a residual-protective, potato plants (Bintje), untreated plants showed pathogen attack of 80-100%, read-out: inhibition of fungal infestation
Description: as §3
(§4) a) Residual-protective action
2-3 week old potato plants (Bintje variety) are sprayed with a spray mixture (0.02% active ingredient) prepared from a wettable powder formulation of the test compound. After 48 hours, the treated plants are infected with a sporangia suspension of the fungus. Fungus infestation is evaluated after incubation of the infected plants for 4 days at 90-100% relative humidity and +20° C.

Plasmopara viticola [5] = assay: D-1a Residual-protective action against Plasmopara viticola on vines; conditions: test D-1a residual-protective, vine seedlings, untreated plants showed pathogen attack of 80-100%, read-out: inhibition of fungal infestation
Description: as §2, §4
Vine seedlings are sprayed at the 4- to 5-leaf stage with a spray mixture (0.02% active ingredient) prepared from a wettable powder formulation of the test compound. After 24 hours, the treated plants are infected with a sporangia suspension of the fungus. Fungus infestation is evaluated after incubation for 6 days at 95-100% relative humidity and +20° C.

Phytophthora [6] = assay: D-2a Residual-protective action against Phytophthora on tomato plants; conditions: test D-2a residual-protective, untreated plants showed pathogen attack of 80-100%, read-out: inhibition of fungal infestation
Description: as §1, §4
After a cultivation period of 3 weeks, tomato plants are sprayed with a spray mixture (0.02% active ingredient) prepared from a wettable powder formulation of the test compound. After 48 hours, the treated plants are infected with a sporangia suspension of the fungus. Fungus infestation is evaluated after incubation of the infected plants for 5 days at 90-100% relative humidity and +20° C.

Measured: inhibition at 200 ppm

C#CCOc1ccc(CCNC(=O)[C@@H](OCC#C)c2ccccc2)cc1OC [Compound E1.002, (S)-2-phenyl-N-[2-(3-methoxy-4-prop-2-ynyloxy-phenyl)-ethyl]-2-prop-2-ynyloxy-acetamide]
80 to 100%: all assays above

C#CCOc1ccc(CCNC(=O)[C@@H](OCC#C)c2ccc(Cl)cc2)cc1OC [Compound E1.011, (S)-2-(4-chloro-phenyl)-N-[2-(3-methoxy-4-prop-2-ynyloxy-phenyl)-ethyl]-2-prop-2-ynyloxy-acetamide]
80 to 100%: all assays above

CCC#CCOc1ccc(CCNC(=O)[C@@H](OCC)c2ccccc2)cc1OC [Compound E1.151]
80 to 100%: Phytophthora [1] | Phytophthora [6]
